# In ChEMBL document CHEMBL5126667, “Tigliane-Type Diterpene Esters from the Fruits of Shirakiopsis indica and Their Anti-HIV Activity” (J Nat Prod, 2022):
# Columns and labels:
# [1] = Therapeutic index, ratio of cytotoxicity against human MT4 cells to antiviral activity against HIV NL4-3; type: toxicity, cell-based; details: read-out: TI
# [2] = system: Human immunodeficiency virus; assay: Antiviral activity against HIV NL4-3 infected in MT-4 cells assessed as viral replication measured after 4 days by p24-ELISA; type: functional, organism-based; details: Human immunodeficiency virus 1, NL4-3, MT4, 96 h
SMILES,selectivity ratio [1],EC50 [2]
CNc1ccccc1C(=O)O[C@@H]1[C@@H](C)[C@@]2(O)[C@@H](C=C(CO)C[C@]3(O)C(=O)C(C)=C[C@@H]23)[C@@H]2C(C)(C)[C@]12OC(C)=O,5290,0.044 µM
CCC/C=C/C=C/C=C\C(=O)O[C@@H]1[C@@H](C)[C@]2(O)[C@@H]3C=C(C)C(=O)[C@H]3CC(CO)=C[C@H]2[C@@H]2C(C)(C)[C@]12OC(C)=O,161,0.13 µM
CNc1ccccc1C(=O)O[C@@H]1[C@@H](C)[C@]2(O)[C@@H]3C=C(C)C(=O)[C@H]3CC(CO)=C[C@H]2[C@@H]2C(C)(C)[C@]12OC(C)=O [SAPINTOXIN A],1100,0.0074 µM
Cc1cn([C@H]2C[C@H](N=[N+]=[N-])[C@@H](CO)O2)c(=O)[nH]c1=O [ZIDOVUDINE],> 22,0.02 µM
